From the supplement of paper PMC11061612

Columns and labels:
[1] = test system: ALL-SIL (T-Lymphoblastic Leukemia); assay: Bliss excess, mean over the matrix (fraction); higher = more synergy
Method in brief: (§1)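 Bliss excess equals the observed combination effect minus the expected value EA + EB − EA·EB, where EA and EB are the effects of each agent alone. Combination Emax is the second-highest inhibition within the matrix. Inhibition was scaled from CellTiter-Glo 2.0 luminescence, with 0 set by vehicle wells and 1 by blank wells, after 72 hours of two-drug dosing of cells plated in 1536-well plates.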

[2] = test system: CADO-ES1 (Ewing's Sarcoma); assay: as above
Method in brief: as §1

[3] = test system: EJM (Plasma Cell Myeloma); assay: as above
Method in brief: as §1

[4] = test system: KOPN-8 (B-Lymphoblastic Leukemia); assay: as above
Method in brief: as §1

[5] = test system: NCI-H2122 (Lung Adenocarcinoma); assay: as above
Method in brief: as §1

[6] = test system: G-401 (Other Solid Carcinomas); assay: as above
Method in brief: as §1

[7] = test system: NCI-H650 (Lung Adenocarcinoma); assay: combination Emax (second highest fraction inhibited in the dose matrix, 72 h); higher = more inhibition; extreme values may be limits of the assay
Method in brief: as §1

[8] = test system: SK-LU-1 (Lung Adenocarcinoma); assay: as above
Method in brief: as §1

[9] = test system: CADO-ES1 (Ewing's Sarcoma); assay: as above
Method in brief: as §1

[10] = test system: HCC2998 (Colorectal Carcinoma); assay: as above
Method in brief: as §1

[11] = test system: LC-1-sq (Squamous Cell Lung Carcinoma); assay: as above
Method in brief: as §1

[12] = test system: EJM (Plasma Cell Myeloma); assay: as above
Method in brief: as §1

Hey (Ovarian Carcinoma) = assay: as above
Method in brief: as §1

[13] = test system: DU-145 (Prostate Carcinoma); assay: as above
Method in brief: as §1

[14] = test system: OACM5-1 (Esophageal Adenocarcinoma); assay: as above
Method in brief: as §1

[15] = test system: NCI-H1838 (Lung Adenocarcinoma); assay: as above
Method in brief: as §1

[16] = test system: KOPN-8 (B-Lymphoblastic Leukemia); assay: as above
Method in brief: as §1

[17] = test system: HCC1500 (Breast Carcinoma); assay: as above
Method in brief: as §1

[18] = test system: G-401 (Other Solid Carcinomas); assay: as above
Method in brief: as §1

[19] = test system: NCI-H1092 (Small Cell Lung Carcinoma); assay: as above
Method in brief: as §1

Row | Structure (SMILES) | Bliss excess [1] | Bliss excess [2] | Bliss excess [3] | Bliss excess [4] | Bliss excess [5] | Bliss excess [6] | combination Emax [7] | combination Emax [8] | combination Emax [9] | combination Emax [10] | combination Emax [11] | combination Emax [12] | combination Emax (Hey (Ovarian Carcinoma)) | combination Emax [13] | combination Emax [14] | combination Emax [15] | combination Emax [16] | combination Emax [17] | combination Emax [18] | combination Emax [19]
1 | COc1cc2ncnc(Nc3ccc(F)c(Cl)c3)c2cc1OCCCN1CCOCC1 [Gefitinib] + CC(C)n1c(=O)n(C)c2cnc3cc(F)c(-c4ccc(OCCCN5CCCCC5)nc4)cc3c21 [AZD1390] (first compound max 10 µM, 7x7, partner max 0.3 µM) | -0.0699 | -0.0634 | -0.0395 | -0.0725 | -0.0508 | -0.0446 | 0.106 | 0.245 | 0.123 | 0.105 | 0.265 | 0.133 | 0.0522 | 0.167 | 0.191 | 0.19 | 0.241 | 0.113 | 0.404 | 0.0586
2 | CN(CCO)CC[C@H](CSc1ccccc1)Nc1ccc(S(=O)(=O)NC(=O)c2ccc(N3CCC([C@@H](O)c4ccccc4-c4ccc(Cl)cc4)CC3)cc2)cc1S(=O)(=O)C(F)(F)F [AZD4320] + C1CN(CCC1(C(=O)N[C@@H](CCO)C2=CC=C(C=C2)Cl)N)C3=NC=NC4=C3C=CN4 [Capivasertib] (first compound max 1 µM, 7x7, partner max 3 µM) | -0.0464 | -0.0387 | -0.0272 | -0.0266 | -0.0234 | -0.0591 | 0.134 | 0.267 | 0.613 | 0.881 | 0.134 | 0.525 | 0.106 | 0.0863 | 0.617 | 0.178 | 0.883 | 0.993 | 0.529 | 0.813
3 | C[C@@H](c1ccc2nccn2c1)n1nnc2ncc(-c3cnn(C)c3)nc21 [Savolitinib] + Cc1c2c(nn1C)CSCc1cc(n(C)n1)CSc1cc(c3ccccc3c1)OCCCc1c(C(=O)O)n(C)c3c-2c(Cl)ccc13 [AZD5991] (first compound max 1 µM, 7x7, partner max 1 µM) | -0.0355 | 0.0151 | 0.0066 | 0.0789 | -0.0513 | -0.0047 | 0.2 | 0.329 | 0.346 | 0.454 | 0.278 | 0.232 | 0.127 | 0.132 | 0.896 | 0.28 | 0.844 | 0.428 | 0.295 | 0.46
4 | Cc1c2c(nn1C)CSCc1cc(n(C)n1)CSc1cc(c3ccccc3c1)OCCCc1c(C(=O)O)n(C)c3c-2c(Cl)ccc13 [AZD5991] + Cn1cnc2c(F)c(Nc3ccc(Br)cc3Cl)c(C(=O)NOCCO)cc21 [Selumetinib] (first compound max 1 µM, 7x7, partner max 3 µM) | 0.0068 | -0.0208 | 0.0088 | 0.0258 | 0.028 | -0.0039 | 0.432 | 0.476 | 0.874 | 0.998 | 0.311 | 0.983 | 0.563 | 0.221 | 0.94 | 0.511 | 1 | 0.41 | 0.474 | 0.608
5 | CN(CCO)CC[C@H](CSc1ccccc1)Nc1ccc(S(=O)(=O)NC(=O)c2ccc(N3CCC([C@@H](O)c4ccccc4-c4ccc(Cl)cc4)CC3)cc2)cc1S(=O)(=O)C(F)(F)F [AZD4320] + C[C@@H]1COCCN1C2=NC(=NC(=C2)C3(CC3)[S@](=N)(=O)C)C4=C5C=CNC5=NC=C4 [AZD6738] (first compound max 1 µM, 7x7, partner max 10 µM) | 0.0038 | -0.0031 | 0.0488 | -0.0246 | -0.0269 | -0.0287 | 0.415 | 0.663 | 0.939 | 0.968 | 0.845 | 0.929 | 0.869 | 0.6 | 0.663 | 0.694 | 0.995 | 1 | 0.742 | 0.915
6 | C[C@@H](c1ccc2nccn2c1)n1nnc2ncc(-c3cnn(C)c3)nc21 [Savolitinib] + CC1(C)CCC(CN2CCN(c3ccc(C(=O)NS(=O)(=O)c4ccc(NCC5CCOCC5)c([N+](=O)[O-])c4)c(Oc4cnc5[nH]ccc5c4)c3)CC2)=C(c2ccc(Cl)cc2)C1 [Venetoclax] (first compound max 1 µM, 7x7, partner max 1 µM) | -0.0072 | -0.0549 | -0.0127 | 0.0298 | -0.0559 | -0.0528 | 0.0996 | 0.273 | 0.695 | 0.105 | 0.116 | 0.232 | 0.0566 | 0.101 | 0.166 | 0.146 | 0.743 | 0.629 | 0.104 | 0.248
7 | Cc1cc2ncnn2cc1Nc1ncc2c(n1)n(C1CCOCC1)c(=O)n2C [AZD7648] + O=C(c1cc(Cc2n[nH]c(=O)c3ccccc23)ccc1F)N1CCN(C(=O)C2CC2)CC1 [Olaparib] (first compound max 10 µM, 7x7, partner max 10 µM) | -0.0083 | 0.0086 | -0.0369 | 0.0196 | -0.0124 | -0.0308 | 0.14 | 0.329 | 0.548 | 0.321 | 0.17 | 0.2 | 0.266 | 0.171 | 0.267 | 0.323 | 0.68 | 0.269 | 0.434 | 0.111
8 | Cc1nc(Nc2ncc(C(=O)Nc3c(C)cccc3Cl)s2)cc(N2CCN(CCO)CC2)n1 [Dasatinib] + CC(=O)Nc1cccc(-n2c(=O)n(C3CC3)c(=O)c3c(Nc4ccc(I)cc4F)n(C)c(=O)c(C)c32)c1 [Trametinib] (first compound max 2 µM, 7x7, partner max 1 µM) | 0.0316 | -0.0435 | -0.0342 | -0.188 | 0.0119 | -0.0089 | 0.747 | 0.511 | 0.151 | 1 | 0.166 | 0.153 | 0.858 | 0.457 | 0.417 | 0.367 | 0.545 | 0.172 | 0.903 | 0.125
9 | CN(CCO)CC[C@H](CSc1ccccc1)Nc1ccc(S(=O)(=O)NC(=O)c2ccc(N3CCC([C@@H](O)c4ccccc4-c4ccc(Cl)cc4)CC3)cc2)cc1S(=O)(=O)C(F)(F)F [AZD4320] + Cc1cc2ncnn2cc1Nc1ncc2c(n1)n(C1CCOCC1)c(=O)n2C [AZD7648] (first compound max 1 µM, 7x7, partner max 10 µM) | -0.0083 | -0.0361 | 0.0347 | -0.0243 | -0.0074 | -0.0392 | 0.134 | 0.421 | 0.608 | 0.492 | 0.158 | 0.382 | 0.247 | – | 0.577 | 0.289 | 0.88 | 0.998 | 0.424 | 0.855
